Reference: patent publication US20230049619A1, “SIGMA-1 RECEPTOR LIGANDS AND USES THEREOF” (UNIVERSITE DE STRASBOURG, priority 2019, published 2023)
Where a name gives a salt, the structure may show the parent alone.

Molecular target: T1, sigma-1 receptor (Homo sapiens, UniProt Q99720)
T1 construct: incubing Jurkat cell membranes ([…] protein per tube) with [^3H](+)-pentazocine; endogenous in cells; host or cells: Jurkat cell membranes
Assay: sigma-1 receptor binding assay ([3H](+)-pentazocine displacement, Jurkat cell membranes)
Conditions: [3H](+)-pentazocine 15 nM, 37° C., 2 hours; for inhibition at 0.01 µM / sigma-1 receptor % inhibition 10 nM: tested compound 10 nM; for inhibition at 0.1 µM: tested compound 100 nM
Experimental: The sigma-1 receptor binding assays were performed according to Ganapathy et al. (J Pharmacol Exp Ther 28:251-60, 1999). The sigma-1 receptor binding assay was carried out by incubing Jurkat cell membranes ([…] protein per tube) with [^3H](+)-pentazocine a selective sigma-1 radiotracer (15 nM) and a range of concentration of tested compounds, at 37° C. for 2 hours in 5 mM tris/HCl buffer (pH=7.4). The inhibition of [^3H](+)-pentazocine binding assay is mainly used to determine the inhibition constant (Ki) of potential sigma-1 receptor ligands. These assays are performed with a single concentration of [^3H](+)-pentazocine at a concentration near its KD and increasing concentrations of non-radioactive ligands.

T1 sequence (Q99720 whole entry): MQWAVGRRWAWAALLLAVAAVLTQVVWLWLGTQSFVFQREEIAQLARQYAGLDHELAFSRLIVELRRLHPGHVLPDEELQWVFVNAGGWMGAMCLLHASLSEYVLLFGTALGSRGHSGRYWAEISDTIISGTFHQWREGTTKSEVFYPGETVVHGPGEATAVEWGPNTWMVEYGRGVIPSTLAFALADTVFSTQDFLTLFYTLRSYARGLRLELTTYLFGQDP

Compound | inhibition at 0.01 µM [%] | inhibition at 0.1 µM [%] | sigma-1 receptor % inhibition 10 nM [%]
O=c1c(-c2ccccc2)ccnn1C1CCN(Cc2ccccc2)CC1 [cpd 1, 2-(1-benzylpiperidin-4-yl)-4-phenylpyridazin-3(2H)-one hydrochloride] | 59.9 | 97.1 | –
O=c1cc(-c2ccccc2)cnn1C1CCN(Cc2ccccc2)CC1 [cpd 2, 2-(1-benzylpiperidin-4-yl)-5-phenylpyridazin-3(2H)-one hydrochloride] | 86 | 90 | –
O=c1c(-c2ccccc2)ccnn1C1CCN(CCc2ccccc2)CC1 [cpd 3, 4-phenyl-2-[1-(2-phenylethyl)piperidin-4-yl]-2,3-dihydropyridazin-3-one hydrochloride] | 41.9 | – | –
O=c1c(-c2ccccc2)ccnn1C1CCN(CC2CC2)CC1 [cpd 4, 2-[1-(cyclopropylmethyl)piperidin-4-yl]-4-phenyl-2,3-dihydropyridazin-3-one hydrochloride] | 13.5 | – | –
Cl.O=c1c(-c2ccccc2)ccnn1C1CCN(CC2CCCC2)CC1 [cpd 5, 2-[1-(cyclopentylmethyl)piperidin-4-yl]-4-phenyl-2,3-dihydropyridazin-3-one hydro-chloride] | – | – | 60.7
O=c1c(-c2ccccc2)ccnn1C1CCCN(Cc2ccccc2)CC1 (stereo not shown) [cpd 6, 2-(1-benzylazepan-4-yl)-4-phenyl-2,3-dihydropyridazin-3-one hydrochloride] | 81.4 | – | –
O=c1cc(-c2ccccc2)cnn1CC1CCN(Cc2ccccc2)CC1 [cpd 8, 2-((1-benzylpiperidin-4-yl)methyl)-5-phenylpyridazin-3(2H)-one hydrochloride] | 31.5 | – | –
O=c1c(-c2ccccc2)ccnn1CC1CCCN(Cc2ccccc2)C1 (stereo not shown) [cpd 9, 2-[(1-benzylpiperidin-3-yl)methyl]-4-phenyl-2,3-dihydropyridazin-3-one hydrochloride] | 38.8 | – | –
O=c1c(-c2ccccc2)ccnn1CC1CCN(CCc2ccccc2)CC1 [cpd 10, 2-((1-phenethylpiperidin-4-yl)methyl)-4-phenylpyridazin-3(2H)-one hydrochloride] | 29.2 | – | –
CCCN1CCC(Cn2nccc(-c3ccccc3)c2=O)CC1 [cpd 11, 4-phenyl-2-((1-propylpiperidin-4-yl)methyl)pyridazin-3(2H)-one hydrochloride] | 3.9 | – | –
O=c1c(-c2ccccc2)ccnn1CC1CCN(Cc2ccc(Cl)cc2)CC1 [cpd 12, 2-((1-(4-chlorobenzyl)piperidin-4-yl)methyl)-4-phenylpyridazin-3(2H)-one hydrochloride] | 73.1 | – | –
O=c1c(-c2ccccc2)ccnn1CC1CCN(CC2CCCCC2)CC1 [cpd 13, 2-((1-(cyclohexylmethyl)piperidin-4-yl)methyl)-4-phenylpyridazin-3(2H)-one hydrochloride] | 59.3 | – | –
O=c1c(-c2ccccc2)ccnn1CC1CCN(Cc2ccncc2)CC1 [cpd 14, 4-phenyl-2-((1-(pyridin-4-ylmethyl)piperidin-4-yl)methyl)pyridazin-3(2H)-one hydrochloride] | 16.4 | – | –
O=c1c(-c2ccccc2)ccnn1CC1CCN(CC2CCOCC2)CC1 [cpd 15, 4-phenyl-2-((1-((tetrahydro-2H-pyran-4-yl)methyl)piperidin-4-yl)methyl)pyridazin-3(2H)-one dihydrochloride] | 19.3 | – | –
Cl.Cl.O=c1c(-c2ccccc2)ccnn1CC1CCN(Cc2cnc[nH]2)CC1 [cpd 16, 2-{[1-(1H-imidazol-5-ylmethyl)piperidin-4-yl]methyl}-4-phenyl-2,3-dihydropyridazin-3-one dihydro-chloride] | – | – | 3.8
O=c1c(-c2ccccc2)ccnn1CC1CCN(Cc2ccc(O)cc2)CC1 [cpd 18, 2-((1-(4-hydroxybenzyl)piperidin-4-yl)methyl)-4-phenylpyridazin-3(2H)-one hydrochloride] | 16.7 | – | –
O=c1c(-c2ccccc2)ccnn1CC1CCN(CCO)CC1 [cpd 20, 2-((1-(2-hydroxyethyl)piperidin-4-yl)methyl)-4-phenylpyridazin-3(2H)-one hydrochloride] | 18.9 | – | –
